Target: T1, AbiEii (AbiEii-His6) (Streptococcus agalactiae, UniProt Q8DZ35)
T1 construct: gene abiGII; full-length, C-terminal His6 tag kept, from pRLD56 in E. coli BL21 co-expressing AbiEi (pRLD69), Ni-NTA purified
T1 sequence (Q8DZ35 1-281): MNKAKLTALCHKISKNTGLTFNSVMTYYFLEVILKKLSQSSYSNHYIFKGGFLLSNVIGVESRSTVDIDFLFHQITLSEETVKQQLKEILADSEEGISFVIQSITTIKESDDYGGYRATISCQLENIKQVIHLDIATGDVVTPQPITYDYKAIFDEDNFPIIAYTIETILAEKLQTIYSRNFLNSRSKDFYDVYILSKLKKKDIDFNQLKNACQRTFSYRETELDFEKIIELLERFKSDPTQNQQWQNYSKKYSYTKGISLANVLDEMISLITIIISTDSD
Assay: native PAGE gel shift of [α-32P]-NTP
Assay type: binding
Conditions: labelled compound; 0.65 pmol; 10 mM Tris-HCl, […] MgCl2, 50 mM KCl, pH 8.3, 37 °C, 1 h

Row | SMILES | native PAGE gel shift of [α-32P]-NTP
1 | Nc1nc2c(ncn2[C@@H]2O[C@H](COP(=O)(O)OP(=O)(O)OP(=O)(O)O)[C@@H](O)[C@H]2O)c(=O)[nH]1 [GTP] | Increasing AbiEii-His6 concentrations led to retardation in GTP migration, demonstrating GTP binding
2 | Nc1ncnc2c1ncn2[C@@H]1O[C@H](COP(=O)(O)OP(=O)(O)OP(=O)(O)O)[C@@H](O)[C@H]1O [ATP] | Limited binding to ATP was also observed
